Assay results from patent US12630548B2, “Azetidine derivatives for the treatment of integrin associated diseases” (The University of Nottingham, priority 2020, dated 2026).

These molecules were tested against ανβ6 (Homo sapiens, UniProt P06756+P18564) (assay: Cell adhesion assay, αvβ6 integrin). Details: cell adhesion data; read-out: ανβ6 IC50.
Assay type: cell-based
Protocol: The assays were performed as described in the literature (P. A. Procopiou, N. A. Anderson, J. Barrett, T. N. Barrett, M. H. J. Crawford, B. J. Fallon, A. P. Hancock, J. Le, S. Lemma, R. P. Marshall, J. Morrell, J. M. Pritchard, J. E. Rowedder, P. Saklatvala, R. J. Slack, S. L. Sollis, C. J. Suckling, L. R. Thorp, G. Vitulli, et al., J. Med. Chem. 2018, 61, 8417-8443; S. B. Ludbrook, S. T. Barry, C. J. Delves, C. M. T. Horgan, Biochem. J. 2003, 369, 311-318).

ανβ6, sequence (P06756 31-889 limits assumed): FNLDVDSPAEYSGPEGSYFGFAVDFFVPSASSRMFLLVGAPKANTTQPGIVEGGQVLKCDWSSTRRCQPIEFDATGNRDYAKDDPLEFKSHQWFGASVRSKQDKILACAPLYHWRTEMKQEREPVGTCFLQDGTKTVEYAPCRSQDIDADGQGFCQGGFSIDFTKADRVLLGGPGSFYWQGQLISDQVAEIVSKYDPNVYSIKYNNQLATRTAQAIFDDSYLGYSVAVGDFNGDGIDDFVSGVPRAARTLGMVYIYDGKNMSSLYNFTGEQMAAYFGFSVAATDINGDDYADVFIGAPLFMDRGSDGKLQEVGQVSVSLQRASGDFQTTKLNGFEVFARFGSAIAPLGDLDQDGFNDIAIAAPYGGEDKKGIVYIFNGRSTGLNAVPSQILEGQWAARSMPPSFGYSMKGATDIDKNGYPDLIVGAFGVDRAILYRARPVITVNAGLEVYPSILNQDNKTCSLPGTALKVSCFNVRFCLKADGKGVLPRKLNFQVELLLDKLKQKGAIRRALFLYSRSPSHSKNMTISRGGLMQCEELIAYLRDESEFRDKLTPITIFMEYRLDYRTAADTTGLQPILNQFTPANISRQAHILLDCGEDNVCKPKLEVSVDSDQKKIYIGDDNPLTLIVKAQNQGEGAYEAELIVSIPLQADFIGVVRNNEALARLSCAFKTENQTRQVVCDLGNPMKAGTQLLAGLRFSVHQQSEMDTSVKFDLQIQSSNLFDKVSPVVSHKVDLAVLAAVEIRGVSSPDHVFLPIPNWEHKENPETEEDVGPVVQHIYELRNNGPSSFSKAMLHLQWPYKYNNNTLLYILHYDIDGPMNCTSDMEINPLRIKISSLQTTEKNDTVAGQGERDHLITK
ανβ6, sequence (P06756 891-1048 limits assumed): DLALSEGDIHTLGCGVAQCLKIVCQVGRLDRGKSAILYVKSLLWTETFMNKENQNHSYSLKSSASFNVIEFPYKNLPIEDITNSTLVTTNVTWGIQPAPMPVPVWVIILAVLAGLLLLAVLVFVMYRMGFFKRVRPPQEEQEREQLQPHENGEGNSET
ανβ6, sequence (P18564 22-788): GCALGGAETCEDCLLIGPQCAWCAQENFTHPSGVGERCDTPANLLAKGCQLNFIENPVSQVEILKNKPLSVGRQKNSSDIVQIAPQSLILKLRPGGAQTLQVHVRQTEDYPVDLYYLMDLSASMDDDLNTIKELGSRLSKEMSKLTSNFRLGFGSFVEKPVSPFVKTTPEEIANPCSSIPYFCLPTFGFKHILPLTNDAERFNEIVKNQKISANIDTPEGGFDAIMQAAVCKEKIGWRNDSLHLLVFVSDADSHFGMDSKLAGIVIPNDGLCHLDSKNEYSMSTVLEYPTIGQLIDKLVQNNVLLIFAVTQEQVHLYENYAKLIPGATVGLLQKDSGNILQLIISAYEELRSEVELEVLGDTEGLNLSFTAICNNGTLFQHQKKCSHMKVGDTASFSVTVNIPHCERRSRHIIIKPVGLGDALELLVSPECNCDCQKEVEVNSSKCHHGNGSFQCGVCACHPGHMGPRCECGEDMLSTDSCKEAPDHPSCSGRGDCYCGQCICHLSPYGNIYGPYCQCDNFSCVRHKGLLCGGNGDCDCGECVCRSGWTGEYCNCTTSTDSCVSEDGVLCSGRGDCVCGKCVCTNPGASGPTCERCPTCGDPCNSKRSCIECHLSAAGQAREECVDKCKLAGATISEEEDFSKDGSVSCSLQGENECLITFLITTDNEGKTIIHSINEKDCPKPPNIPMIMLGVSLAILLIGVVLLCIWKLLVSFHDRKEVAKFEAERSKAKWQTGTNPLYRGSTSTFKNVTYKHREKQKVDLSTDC

Compound	IC50 [µM]
O=C(CCCCc1ccc2c(n1)NCCC2)NCC(NC(=O)C1CN(S(=O)(=O)c2ccc(F)cc2)C1)C(=O)O (racemic) [Example 2, 2-(1-(4-fluorobenzenesulfonyl)azetidine-3-carboxamido)-3-(5-(5,6,7,8-tetrahydro-1,8-naphthyridin-2-yl)pentanamido)propanoic acid]	< 0.25
Cc1ccccc1S(=O)(=O)N1CC(C(=O)NC(CNC(=O)CCCCc2ccc3c(n2)NCCC3)C(=O)O)C1 (racemic) [Example 3, 3-(5-(5,6,7,8-tetrahydro-1,8-naphthyridin-2-yl)pentanamido)-2-(1-(2-methylbenzenesulfonyl)azetidine-3-carboxamido)propanoic acid]	< 0.25
Cc1cccc(S(=O)(=O)N2CC(C(=O)NC(CNC(=O)CCCCc3ccc4c(n3)NCCC4)C(=O)O)C2)c1 (racemic) [Example 4, 3-(5-(5,6,7,8-tetrahydro-1,8-naphthyridin-2-yl)pentanamido)-2-(1-(3-methylbenzenesulfonyl)azetidine-3-carboxamido)propanoic acid]	< 0.25
O=C(CCCCc1ccc2c(n1)NCCC2)NCC(NC(=O)C1CN(S(=O)(=O)c2cccc(C(F)(F)F)c2)C1)C(=O)O (racemic) [Example 7, 3-(5-(5,6,7,8-tetrahydro-1,8-naphthyridin-2-yl)pentanamido)-2-(1-(3-(trifluoromethyl)benzenesulfonyl)azetidine-3-carboxamido)propanoic acid]	< 0.25
O=C(CCCCc1ccc2c(n1)NCCC2)NCC(NC(=O)C1CN(S(=O)(=O)c2ccccc2)C1)C(=O)O (racemic) [Example 9, 2-(1-(phenylsulfonyl)azetidine-3-carboxamido)-3-(5-(5,6,7,8-tetrahydro-1,8-naphthyridin-2-yl)pentanamido)propanoic acid]	< 0.25
Cc1cc(C)cc(S(=O)(=O)N2CC(C(=O)NC(CNC(=O)CCCCc3ccc4c(n3)NCCC4)C(=O)O)C2)c1 (racemic) [Example 11, 2-(1-(3,5-dimethylbenzenesulfonyl)azetidine-3-carboxamido)-3-(5-(5,6,7,8-tetrahydro-1,8-naphthyridin-2-yl)pentanamido)propanoic acid]	< 0.25
CS(=O)(=O)c1cccc(S(=O)(=O)N2CC(C(=O)NC(CNC(=O)CCCCc3ccc4c(n3)NCCC4)C(=O)O)C2)c1 (racemic) [Example 12]	< 0.25

More lines, now with the values ahead:

IC50 [µM]	Compound
< 0.25	Cc1ccc(S(=O)(=O)N2CC(C(=O)NC(CNC(=O)CCCCc3ccc4c(n3)NCCC4)C(=O)O)C2)cc1 (racemic) [Example 1, 3-(5-(5,6,7,8-tetrahydro-1,8-naphthyridin-2-yl)pentanamido)-2-(1-(4-methylbenzenesulfonyl)azetidine-3-carboxamido)propanoic acid]
< 0.25	O=C(CCCCc1ccc2c(n1)NCCC2)NCC(NC(=O)C1CN(S(=O)(=O)c2cccc(F)c2)C1)C(=O)O (racemic) [Example 5, 2-(1-(3-fluorobenzenesulfonyl)azetidine-3-carboxamido)-3-(5-(5,6,7,8-tetrahydro-1,8-naphthyridin-2-yl)pentanamido)propanoic acid]
< 0.25	O=C(CCCCc1ccc2c(n1)NCCC2)NCC(NC(=O)C1CN(S(=O)(=O)c2cccc(OC(F)(F)F)c2)C1)C(=O)O (racemic) [Example 8, 3-(5-(5,6,7,8-tetrahydro-1,8-naphthyridin-2-yl)pentanamido)-2-(1-(3-(trifluoromethoxy)benzenesulfonyl)azetidine-3-carboxamido)propanoic acid]
< 0.25	O=C(CCCCc1ccc2c(n1)NCCC2)NCC(NC(=O)C1CN(S(=O)(=O)c2cc(Cl)cc(Cl)c2)C1)C(=O)O (racemic) [Example 10, 2-(1-(3,5-dichlorobenzenesulfonyl)azetidine-3-carboxamido)-3-(5-(5,6,7,8-tetrahydro-1,8-naphthyridin-2-yl)pentanamido)propanoic acid]
